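All cell lines were grown in 96-well plates and treated with compound for 48 hours. GI50 is the concentration that inhibits growth by half. TGI: concentration producing complete growth inhibition.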
What was measured:
Experiment in all cases: growth of human tumour cells (NCI), 48 h
CAKI-1 renal = system: CAKI-1 renal
EKVX NSCLC = system: EKVX NSCLC
HCT-15 colon = system: HCT-15 colon
NCI-H460 lung = system: NCI-H460 lung
RXF 393 renal = system: RXF 393 renal
SK-MEL-2 melanoma = system: SK-MEL-2 melanoma
SK-MEL-5 melanoma = system: SK-MEL-5 melanoma
SW-620 colon = system: SW-620 colon
TK-10 renal = system: TK-10 renal
UO-31 renal = system: UO-31 renal
SF-539 CNS = system: SF-539 CNS

Work on O=C(O)CC1(CC(=O)O)Nc2ccccc2SC1=O yielded a TGI (CAKI-1 renal) of over 100 µM, a TGI (EKVX NSCLC) of over 100 µM and a TGI (HCT-15 colon) of over 100 µM. The TGI (NCI-H460 lung) was over 100 µM, the TGI (RXF 393 renal) was over 100 µM and the TGI (SK-MEL-2 melanoma) was over 100 µM. The TGI (SK-MEL-5 melanoma) was over 100 µM, the TGI (SW-620 colon) was over 100 µM and the TGI (TK-10 renal) was over 100 µM. It also gave a TGI (UO-31 renal) of over 100 µM.
CC(CCC(=O)O)C1CCC2C3C(O)CC4CC(O)CCC4(C)C3CC(O)C12C (configuration not stated) showed a TGI (CAKI-1 renal) of over 100 µM, a TGI (EKVX NSCLC) of over 100 µM and a TGI (HCT-15 colon) of over 100 µM. For the same compound, the TGI (NCI-H460 lung) was over 100 µM, the TGI (RXF 393 renal) was over 100 µM and the TGI (SF-539 CNS) was over 100 µM. It also gave a TGI (SK-MEL-2 melanoma) of over 100 µM, a TGI (SK-MEL-5 melanoma) of over 100 µM and a TGI (SW-620 colon) of over 100 µM. For the same compound, the TGI (TK-10 renal) was over 100 µM and the TGI (UO-31 renal) was over 100 µM.
C[C@]12CCc3sc(Nc4ccc(O)cc4)nc3C1=CC[C@@H]1[C@@H]2CC[C@]2(C)C(=O)CC[C@@H]12 gave a GI50 (EKVX NSCLC) of 10.4 µM, a TGI (EKVX NSCLC) of over 100 µM and a GI50 (HCT-15 colon) of 1.66 µM. For the same compound, the TGI (HCT-15 colon) was 4.4 µM, the GI50 (NCI-H460 lung) was 3.01 µM and the TGI (NCI-H460 lung) was 10.5 µM. The GI50 (SF-539 CNS) was 1.76 µM, the TGI (SF-539 CNS) was 3.59 µM and the GI50 (SK-MEL-2 melanoma) was 6.98 µM. It also gave a TGI (SK-MEL-2 melanoma) of over 100 µM, a GI50 (SK-MEL-5 melanoma) of 4.33 µM and a TGI (SK-MEL-5 melanoma) of 31.9 µM. It also gave a GI50 (SW-620 colon) of 2.08 µM, a TGI (SW-620 colon) of 4.73 µM and a GI50 (TK-10 renal) of 2.01 µM. It also gave a TGI (TK-10 renal) of 4.4 µM, a GI50 (UO-31 renal) of 1.54 µM and a TGI (UO-31 renal) of 2.9 µM.
CN1CCN(c2cc(-c3cc4ccccc4o3)oc(=O)c2C#N)CC1 showed a TGI (CAKI-1 renal) of over 100 µM, a TGI (EKVX NSCLC) of over 100 µM and a TGI (HCT-15 colon) of over 100 µM. The TGI (NCI-H460 lung) was over 100 µM, the TGI (RXF 393 renal) was over 100 µM and the TGI (SF-539 CNS) was over 100 µM. For the same compound, the TGI (SK-MEL-2 melanoma) was over 100 µM, the TGI (SK-MEL-5 melanoma) was over 100 µM and the TGI (SW-620 colon) was over 100 µM. For the same compound, the TGI (TK-10 renal) was over 100 µM and the TGI (UO-31 renal) was over 100 µM.
Compound O=C(NN1C(=O)CSC1c1ccc(C(F)(F)F)cc1)c1ccncc1 (configuration not stated) has a TGI (CAKI-1 renal) of over 100 µM, a TGI (EKVX NSCLC) of over 100 µM and a TGI (HCT-15 colon) of over 100 µM. It also gave a TGI (NCI-H460 lung) of over 100 µM, a TGI (RXF 393 renal) of over 100 µM and a TGI (SF-539 CNS) of over 100 µM. It also gave a TGI (SK-MEL-2 melanoma) of over 100 µM, a TGI (SK-MEL-5 melanoma) of over 100 µM and a TGI (SW-620 colon) of over 100 µM. For the same compound, the TGI (UO-31 renal) was over 100 µM.
With CCSc1nc(=[N+]2CCCC2)ss1 the TGI (CAKI-1 renal) was over 100 µM, the TGI (EKVX NSCLC) was over 100 µM and the TGI (HCT-15 colon) was over 92.8 µM. For the same compound, the TGI (NCI-H460 lung) was over 100 µM, the TGI (RXF 393 renal) was over 83.3 µM and the TGI (SF-539 CNS) was over 85.6 µM. The TGI (SK-MEL-2 melanoma) was over 100 µM, the TGI (SK-MEL-5 melanoma) was 3.55 µM and the TGI (SW-620 colon) was over 100 µM. It also gave a TGI (TK-10 renal) of over 100 µM and a TGI (UO-31 renal) of over 100 µM.
With COc1ccc(-c2c3c(nc4nc(SC)nc(SC)c24)CCCC3)cc1OC the TGI (CAKI-1 renal) was over 100 µM, the TGI (EKVX NSCLC) was over 100 µM and the TGI (HCT-15 colon) was over 100 µM. For the same compound, the TGI (NCI-H460 lung) was over 100 µM, the TGI (RXF 393 renal) was over 100 µM and the TGI (SF-539 CNS) was over 100 µM. For the same compound, the TGI (SK-MEL-2 melanoma) was over 100 µM, the TGI (SK-MEL-5 melanoma) was over 100 µM and the TGI (SW-620 colon) was over 100 µM. For the same compound, the TGI (TK-10 renal) was over 100 µM and the TGI (UO-31 renal) was over 100 µM.
CCc1nnc(-c2nsc3ccccc23)s1 was tested, and the TGI (EKVX NSCLC) was over 100 µM, the TGI (HCT-15 colon) was over 100 µM and the TGI (NCI-H460 lung) was over 100 µM. The TGI (RXF 393 renal) was over 100 µM, the TGI (SF-539 CNS) was over 100 µM and the TGI (SK-MEL-2 melanoma) was over 100 µM. The TGI (SK-MEL-5 melanoma) was over 100 µM, the TGI (SW-620 colon) was over 100 µM and the TGI (TK-10 renal) was over 100 µM. For the same compound, the TGI (UO-31 renal) was over 100 µM.
Cc1ccc(Nc2nc(NS(=O)(=O)c3cc(C(=O)Nc4ccc(Cl)cc4)c(Cl)cc3S)n[nH]2)cc1 was tested, and the TGI (CAKI-1 renal) was over 100 µM, the TGI (EKVX NSCLC) was over 100 µM and the TGI (HCT-15 colon) was over 100 µM. It also gave a TGI (NCI-H460 lung) of over 100 µM, a TGI (RXF 393 renal) of over 100 µM and a TGI (SF-539 CNS) of over 100 µM. It also gave a TGI (SK-MEL-5 melanoma) of over 100 µM, a TGI (SW-620 colon) of over 100 µM and a TGI (TK-10 renal) of over 100 µM. For the same compound, the TGI (UO-31 renal) was over 100 µM.
Compound O=C1OCC/C1=C/c1ccc(N=Nc2c(O)ccc3ccccc23)cc1 has a TGI (CAKI-1 renal) of 34.8 µM, a TGI (EKVX NSCLC) of 41.8 µM and a TGI (HCT-15 colon) of 60.7 µM. The TGI (NCI-H460 lung) was 47.3 µM, the TGI (RXF 393 renal) was 36.8 µM and the TGI (SF-539 CNS) was 36.6 µM. It also gave a TGI (SK-MEL-2 melanoma) of 55.2 µM, a TGI (SK-MEL-5 melanoma) of 50.8 µM and a TGI (SW-620 colon) of 40 µM. For the same compound, the TGI (TK-10 renal) was 35.3 µM and the TGI (UO-31 renal) was 37.3 µM.
In the case of COc1cc2c(cc1OC)C(C)N(C)c1c-2c(OC(C)=O)cc2cc(OC)c(OC)cc12 (configuration not stated), the TGI (CAKI-1 renal) is reported as 49.5 µM, the TGI (EKVX NSCLC) is reported as 61.9 µM and the TGI (HCT-15 colon) is reported as over 81.2 µM. It also gave a TGI (NCI-H460 lung) of 27.6 µM, a TGI (RXF 393 renal) of 31.1 µM and a TGI (SF-539 CNS) of 40.6 µM. The TGI (SK-MEL-2 melanoma) was 30.2 µM, the TGI (SK-MEL-5 melanoma) was 15.8 µM and the TGI (SW-620 colon) was over 78.2 µM. For the same compound, the TGI (TK-10 renal) was over 100 µM and the TGI (UO-31 renal) was over 92.1 µM.
CCOP(=O)(CN=C(c1ccccc1)c1ccccc1)OCC showed a TGI (CAKI-1 renal) of over 100 µM, a TGI (HCT-15 colon) of over 100 µM and a TGI (NCI-H460 lung) of over 100 µM. For the same compound, the TGI (SK-MEL-2 melanoma) was over 100 µM, the TGI (SK-MEL-5 melanoma) was over 100 µM and the TGI (SW-620 colon) was over 100 µM. The TGI (TK-10 renal) was over 100 µM and the TGI (UO-31 renal) was over 100 µM.
NC(=S)N/N=C1\c2ccccc2CCC1CCC1(O)CCc2ccccc2C1=O (configuration not stated) showed a TGI (CAKI-1 renal) of over 100 µM, a TGI (EKVX NSCLC) of 59.5 µM and a TGI (HCT-15 colon) of over 100 µM. For the same compound, the TGI (NCI-H460 lung) was 32.1 µM, the TGI (RXF 393 renal) was 36.3 µM and the TGI (SF-539 CNS) was 29.5 µM. It also gave a TGI (SK-MEL-5 melanoma) of 28.3 µM, a TGI (SW-620 colon) of over 100 µM and a TGI (TK-10 renal) of 54.3 µM. It also gave a TGI (UO-31 renal) of 29.4 µM.
CC1OC1C(=O)C1(O)C(C)C(O)C23OC2(C(O)c2c(O)cccc2C3=O)C1O (configuration not stated) was tested, and the TGI (CAKI-1 renal) was 0.253 µM, the TGI (EKVX NSCLC) was 0.541 µM and the TGI (HCT-15 colon) was 0.926 µM. It also gave a TGI (NCI-H460 lung) of 0.565 µM, a TGI (RXF 393 renal) of 0.599 µM and a TGI (SF-539 CNS) of 0.276 µM. The TGI (SK-MEL-2 melanoma) was 0.413 µM, the TGI (SK-MEL-5 melanoma) was 0.534 µM and the TGI (SW-620 colon) was 1.21 µM. The TGI (UO-31 renal) was 0.565 µM.
